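Step 1: Grow cells in 96-well plates. Step 2: Expose to compound for 48 hours at 5 concentrations. Step 3: Interpolate endpoints linearly; if unreached, use highest concentration. Here, GI50 denotes the concentration required for 50% inhibition of growth.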 The source made the active and inactive calls. No stated cut-off is given here; in the data, active = GI50 up to about 1.1 µM and inactive = higher.
Key:
Experiment in all cases: DTP human tumour cell line panel, 48 h
[1] = tested on: A498
[2] = tested on: A549
[3] = tested on: HCT-116
[4] = tested on: HOP-62
[5] = tested on: HT-29
[6] = tested on: IGROV-1
[7] = tested on: K562
[8] = tested on: Malme-3M
[9] = tested on: NCI-H460
[10] = tested on: NCI/ADR-RES
[11] = tested on: OVCAR-8
[12] = tested on: PC-3
[13] = tested on: RXF 393
[14] = tested on: SNB-19
[15] = tested on: SNB-75
[16] = tested on: SW-620
[17] = tested on: UACC-257
[18] = tested on: OVCAR-4
[19] = tested on: TK-10

Measured: GI50

NC(=O)c1nnsc1NC=O
inactive: [1] > 100 µM | [2] > 100 µM | [3] > 100 µM | [4] > 100 µM | [5] > 100 µM | [6] > 100 µM | [7] > 100 µM | [8] > 100 µM | [9] > 100 µM | [10] > 100 µM | [11] > 100 µM | [12] > 100 µM | [13] > 100 µM | [14] > 100 µM | [15] > 100 µM | [16] > 100 µM | [17] > 100 µM

CCOC(=O)/C(=C\NC(=S)Nc1ccc(OCC)cc1)C(=O)c1ccccc1
inactive: [1] 20.7 µM | [2] > 100 µM | [3] > 100 µM | [4] > 100 µM | [5] > 100 µM | [6] > 100 µM | [7] > 100 µM | [8] > 100 µM | [9] > 100 µM | [10] > 100 µM | [18] 79.8 µM | [11] > 100 µM | [12] > 100 µM | [13] > 100 µM | [14] > 100 µM | [15] 44.2 µM | [16] > 100 µM | [17] > 100 µM

C=C(C)C#CC(O)(C(=O)OC1CCN(C)CC1)C(C)C (configuration not stated)
inactive: [2] > 100 µM | [3] > 100 µM | [4] > 100 µM | [5] > 100 µM | [6] > 100 µM | [7] > 100 µM | [8] > 100 µM | [10] 29.4 µM | [11] > 100 µM | [12] > 100 µM | [13] > 100 µM | [14] > 100 µM | [15] > 100 µM | [16] > 100 µM | [19] > 100 µM | [17] > 100 µM

O=C(O)C1=C(C(=O)O)Oc2ccccc2O1
inactive: [1] > 100 µM | [2] > 100 µM | [3] > 100 µM | [4] > 100 µM | [5] > 100 µM | [6] > 100 µM | [7] > 100 µM | [8] > 100 µM | [9] > 100 µM | [18] > 100 µM | [11] > 100 µM | [13] > 100 µM | [14] > 100 µM | [15] > 100 µM | [16] > 100 µM | [19] > 100 µM | [17] > 100 µM

O=C(/C=C/c1ccc2ccccc2c1)NCc1ccc(C(=O)NCCc2ccccc2)cc1
inactive: [1] > 100 µM | [2] > 100 µM | [3] > 100 µM | [4] > 100 µM | [7] 52 µM | [9] > 100 µM | [10] > 100 µM | [18] > 100 µM | [11] > 100 µM | [12] > 100 µM | [13] > 100 µM | [14] > 100 µM | [15] 41.5 µM | [16] > 100 µM | [17] > 100 µM

CN(CCS(=O)(=O)N1C(=O)C2CCCN2C(=O)[C@@H]1Cc1ccccc1)C(=O)OCc1ccccc1 (some centres not stated)
inactive: [1] 35.5 µM | [2] 48 µM | [3] 39.9 µM | [4] > 100 µM | [5] 47.4 µM | [6] > 100 µM | [7] 33.4 µM | [8] 65 µM | [9] 47.4 µM | [18] 68.4 µM | [11] 70.3 µM | [13] 28.6 µM | [14] 41.6 µM | [15] 33.4 µM | [16] > 100 µM | [19] 73.3 µM | [17] 69 µM

CN(C)CCN(C)CCC(=O)/C=C/c1ccccc1
inactive: [1] > 89.9 µM | [2] > 71.6 µM | [3] 17.1 µM | [4] > 100 µM | [5] 20.8 µM | [6] > 47.9 µM | [7] 12.7 µM | [8] 18.4 µM | [9] > 100 µM | [18] 38.2 µM | [11] 21.2 µM | [13] 21.3 µM | [14] > 93.3 µM | [15] > 41.5 µM | [16] 18.5 µM | [19] 25.9 µM | [17] 22.2 µM

N#CCCN(C1=NN(C(=O)CC(=O)Nc2ccc(Cl)cc2)C(c2ccccc2)C1)c1ccc(Cl)cc1 (configuration not stated)
inactive: [1] > 100 µM | [2] > 100 µM | [3] > 100 µM | [4] > 100 µM | [5] > 100 µM | [6] > 100 µM | [7] > 100 µM | [8] > 100 µM | [9] > 100 µM | [18] > 100 µM | [11] > 100 µM | [13] > 100 µM | [14] > 100 µM | [15] > 100 µM | [16] > 100 µM | [19] > 100 µM | [17] > 100 µM

O=C1CCCCCCCCCCC(=O)N2CCOCCOCCN1Cc1cccc(n1)C2
inactive: [1] > 100 µM | [2] > 100 µM | [3] > 100 µM | [4] > 100 µM | [5] > 100 µM | [6] > 100 µM | [7] 81.1 µM | [8] > 100 µM | [9] > 100 µM | [18] > 100 µM | [11] > 100 µM | [13] 28.4 µM | [14] > 100 µM | [15] 56 µM | [16] > 100 µM | [19] > 100 µM | [17] > 100 µM

OC12c3ccccc3C3CCC4(OCCO4)C3C1c1ccccc12 (configuration not stated)
inactive: [1] 52.1 µM | [2] > 100 µM | [3] > 100 µM | [4] > 100 µM | [5] 94.2 µM | [6] 61.8 µM | [7] 49.8 µM | [8] > 100 µM | [9] > 100 µM | [18] > 100 µM | [11] > 100 µM | [13] 39.9 µM | [14] > 100 µM | [15] 39.6 µM | [16] > 100 µM | [19] 83.2 µM | [17] 71.9 µM

CC(=O)OC(C)(C)[C@@H]1CC[C@]2(C)/C=C/[C@H](C)C[C@@H](O)C3=C(C)C[C@@H](O3)C12 (some centres not stated)
inactive: [1] > 100 µM | [2] > 100 µM | [3] > 100 µM | [4] > 100 µM | [5] > 100 µM | [6] > 100 µM | [7] > 100 µM | [8] > 100 µM | [9] > 100 µM | [18] > 100 µM | [11] > 100 µM | [13] 94.6 µM | [14] > 100 µM | [15] > 100 µM | [16] > 100 µM | [19] > 100 µM | [17] > 100 µM

CC1C[C@@]2(c3ccccc3)C(=O)CCC[C@H]2N1 (some centres not stated)
inactive: [1] > 100 µM | [2] > 100 µM | [3] > 100 µM | [4] > 100 µM | [5] > 100 µM | [6] > 100 µM | [7] > 100 µM | [8] 16.9 µM | [9] > 100 µM | [18] > 100 µM | [11] > 100 µM | [13] > 100 µM | [14] > 100 µM | [15] > 100 µM | [16] > 100 µM | [19] > 100 µM | [17] > 100 µM

— ChEMBL document CHEMBL1201862, “PubChem BioAssay data set” (2004)
